Laboratory results: PubChem BioAssay AID1845198 (Molecular Pharmacology Branch, DTP, NCI, 2023)

Test system: 425362-245-T-J1 tumor spheroids, viability % test/control
Assay: Anticancer human tumor 425362-245-T-J1 patient-derived melanoma cell line growth inhibition
Conditions: spheroids with HUVEC and MSC; for viability, T/C: stronger effect = lower value; active means viability on the fitted dose curve at most 10% of control; inactive means the rest
Outline: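 Complex spheroids of malignant cells with endothelial cells and mesenchymal stem cells; agents alone or combined, from near clinical Cmax (or 10 microM if unknown) down in half-log steps, 0.25% DMSO final.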

[1] = curve of first compound, second compound 1 µM
[2] = curve of first compound, second compound 3.16 µM
[3] = curve of first compound, second compound 10 µM
[4] = curve of first compound, second compound 31.6 µM
[5] = curve of first compound, second compound 100 µM
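Further: spheroids exposed to agents for 7 days.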

O=C(c1cc(Cc2n[nH]c(=O)c3ccccc23)ccc1F)N1CCN(C(=O)C2CC2)CC1 + Cn1nnc2c(C(N)=O)ncn2c1=O
3.1 µM: IC50 [1]
2.52 µM: IC50 [3]
inactive: viability, T/C (second compound 1 µM, first compound 0.0949 µM) 88.6% | viability, T/C (second compound 1 µM, first compound 0.3 µM) 86.2% | viability, T/C (second compound 1 µM, first compound 0.949 µM) 71.6% | viability, T/C (second compound 1 µM, first compound 3 µM) 55.6% | viability, T/C (second compound 1 µM, first compound 9.49 µM) 12% | viability, T/C (second compound 3.16 µM, first compound 0.0949 µM) 97.8% | viability, T/C (second compound 3.16 µM, first compound 0.3 µM) 87.7% | viability, T/C (second compound 3.16 µM, first compound 0.949 µM) 83.5% | viability, T/C (second compound 3.16 µM, first compound 3 µM) 54.6% | viability, T/C (second compound 3.16 µM, first compound 9.49 µM) 12.8% | viability, T/C (second compound 10 µM, first compound 0.0949 µM) 101% | viability, T/C (second compound 10 µM, first compound 0.3 µM) 85.2% | viability, T/C (second compound 10 µM, first compound 0.949 µM) 80.2% | viability, T/C (second compound 10 µM, first compound 3 µM) 45.8% | viability, T/C (second compound 10 µM, first compound 9.49 µM) 13.1% | viability, T/C (second compound 31.6 µM, first compound 0.0949 µM) 96.5% | viability, T/C (second compound 31.6 µM, first compound 0.3 µM) 83.8% | viability, T/C (second compound 31.6 µM, first compound 0.949 µM) 69.7% | viability, T/C (second compound 31.6 µM, first compound 3 µM) 44.4% | viability, T/C (second compound 31.6 µM, first compound 9.49 µM) 6.18% | viability, T/C (second compound 100 µM, first compound 0.0949 µM) 68.1% | viability, T/C (second compound 100 µM, first compound 0.3 µM) 43.8% | viability, T/C (second compound 100 µM, first compound 0.949 µM) 26.7% | viability, T/C (second compound 100 µM, first compound 3 µM) 10%
3.28 µM: IC50 [2]
active: viability, T/C (second compound 1 µM, first compound 30 µM) 6.69% | viability, T/C (second compound 3.16 µM, first compound 30 µM) 7.75% | viability, T/C (second compound 10 µM, first compound 30 µM) 6.66% | viability, T/C (second compound 31.6 µM, first compound 30 µM) 6.01% | viability, T/C (second compound 100 µM, first compound 9.49 µM) 4.29% | viability, T/C (second compound 100 µM, first compound 30 µM) 3.96%
0.233 µM: IC50 [5]
2.04 µM: IC50 [4]

[2H]c1nc(C)nc([2H])c1-c1cc(NC[C@@H](C)c2cccc3c(C(=O)NC)ccnc23)ncn1 + Cn1nnc2c(C(N)=O)ncn2c1=O
> 10 µM: IC50 [1] | IC50 [2] | IC50 [3] | IC50 [4] | IC50 [5]
inactive: viability, T/C (second compound 1 µM, first compound 0.0316 µM) 88.2% | viability, T/C (second compound 1 µM, first compound 0.1 µM) 96.8% | viability, T/C (second compound 1 µM, first compound 0.316 µM) 95.9% | viability, T/C (second compound 1 µM, first compound 1 µM) 71.2% | viability, T/C (second compound 1 µM, first compound 3.16 µM) 93.4% | viability, T/C (second compound 1 µM, first compound 10 µM) 76.9% | viability, T/C (second compound 3.16 µM, first compound 0.0316 µM) 108% | viability, T/C (second compound 3.16 µM, first compound 0.1 µM) 91.8% | viability, T/C (second compound 3.16 µM, first compound 0.316 µM) 102% | viability, T/C (second compound 3.16 µM, first compound 1 µM) 105% | viability, T/C (second compound 3.16 µM, first compound 3.16 µM) 109% | viability, T/C (second compound 3.16 µM, first compound 10 µM) 94.4% | viability, T/C (second compound 10 µM, first compound 0.0316 µM) 99.2% | viability, T/C (second compound 10 µM, first compound 0.1 µM) 114% | viability, T/C (second compound 10 µM, first compound 0.316 µM) 110% | viability, T/C (second compound 10 µM, first compound 1 µM) 107% | viability, T/C (second compound 10 µM, first compound 3.16 µM) 112% | viability, T/C (second compound 10 µM, first compound 10 µM) 84.2% | viability, T/C (second compound 31.6 µM, first compound 0.0316 µM) 105% | viability, T/C (second compound 31.6 µM, first compound 0.1 µM) 113% | viability, T/C (second compound 31.6 µM, first compound 0.316 µM) 104% | viability, T/C (second compound 31.6 µM, first compound 1 µM) 110% | viability, T/C (second compound 31.6 µM, first compound 3.16 µM) 101% | viability, T/C (second compound 31.6 µM, first compound 10 µM) 85.5% | viability, T/C (second compound 100 µM, first compound 0.0316 µM) 82.7% | viability, T/C (second compound 100 µM, first compound 0.1 µM) 91.3% | viability, T/C (second compound 100 µM, first compound 0.316 µM) 87.4% | viability, T/C (second compound 100 µM, first compound 1 µM) 86.5% | viability, T/C (second compound 100 µM, first compound 3.16 µM) 88.2% | viability, T/C (second compound 100 µM, first compound 10 µM) 83.5%

CC[C@@]1(O)C(=O)OCc2c1cc1n(c2=O)Cc2cc3c(CN(C)C)c(O)ccc3nc2-1
21.5 nM [middle of 5 runs]: IC50 (compound alone, run of 10/17/2019)
inactive: viability, T/C (compound 0.00949 µM) 89.3% [middle of 10 runs] | viability, T/C (compound 0.03 µM) 38.3% [middle of 10 runs]
23.4 nM [middle of 4 runs]: IC50 (compound alone, run of 10/25/2019)
active: viability, T/C (compound 0.0949 µM) 6.41% [middle of 10 runs] | viability, T/C (compound 0.3 µM) 1.78% [middle of 10 runs]
